Laboratory results reported in patent US7611630B2, “Method and device for evaluation of pharmaceutical compositions” (Bend Research, Inc., priority 2004, dated 2009).
Like-named read-outs stand apart in the source and are kept apart here.

Assays:
[1] = partition coefficient between organic fluid and water, from solubility ratio
Excerpt: [formula] where m is the rate at which drug is transported across the membrane (g/sec), Vp is the volume of the permeate solution (cm^3), [D]p is the concentration of drug in the permeate solution (g/cm^3), t is the time (sec), am is the membrane area (cm^2), Pov is the overall permeability coefficient (cm/sec), [Ddissolved]f is the concentration of dissolved drug in the feed solution (g/cm^3), and kp,mem is the partition coefficient of drug between the organic fluid and water, which is defined as the ratio of (1) the concentration of drug in the organic fluid, and (2) the concentration of dissolved neutral drug in the aqueous feed solution when the two solutions are at equilibrium. The partition coefficient can be estimated from the ratio of (1) the solubility of drug in the organic fluid and (2) the solubility of the dissolved drug in the aqueous feed solution.
The organic fluid consisted of 4 mL of decanol, which was added to the permeate reservoir. […] An overhead stirrer was used to stir the decanol permeate solution at 100 rpm.
The organic fluid used in these tests consisted of 5 mL of 20 wt % decanol in decane.

[2] = not told, 120 μg/mL

| SMILES | partition coefficient between the organic fluid and water [1] | partition coefficient between the organic fluid and water ([1]; 20 wt % decanol in decane / water) | Maximum Flux of Drug 3 [2] [μg/cm^2-min] | solubility (physchem; organic solvent or mixture, solubility in organic fluid) [mg/mL] | solubility (physchem; water, aqueous solubility (solubility in water)) [mg/mL] |
| --- | --- | --- | --- | --- | --- |
| O=C(N[C@@H](Cc1ccccc1)[C@@H](O)C(=O)N1C[C@@H](O)[C@@H](O)C1)c1cc2cc(Cl)ccc2[nH]1 [Drug 2, 5-chloro-1H-indole-2-carboxylic acid [(1S)-benzyl-(2R)-hydroxy-3-((3R,4S)-dihydroxy-pyrrolidin-1-yl-)-3-oxypropyl]amide] | about 12 |  |  |  |  |
| CC[C@@H]1C[C@H](N(Cc2cc(C(F)(F)F)cc(C(F)(F)F)c2)C(C)=O)c2cc(C(F)(F)F)ccc2N1C(=O)OC(C)C [Drug 3, [2R,4S]4-[acetyl-(3,5-bis-trifluoromethyl-benzyl)-amino]-2-ethyl-6-trifluoromethyl-3,4-dihydro-2H-quinoline-1-carboxylic acid isopropyl ester] |  | greater than 250,000 | 0.06 | > 25 | < 0.0001 |
